Reference: ChEMBL document CHEMBL6078706, “Deciphering the Comprehensive Structure-Activity Relationship of Sunshinamide for Breast Cancer Therapy through Dual Modulation of Apoptotic and Ferroptotic Pathways via TrxR1 and Gpx4 Inhibition” (J Med Chem, 2024)
Activity calls are given as the source filed them. No cut-off for these calls is given here.

Legend:
MDA-MB-468 [1] = assay: Induction of ferroptosis in human MDA-MB-468 cells expressing GPX4 assessed as reduction in lipid peroxidation level at 25 nM incubated for 6 hrs by C11-BODIPY staining based flow cytometry analysis; format: functional, cell-based
MDA-MB-468 [2] = assay: Induction of apoptosis in human MDA-MB-468 cells transfected with ATF4 SiRNA assessed as increase in caspase 3/7 activation at 25 nM measured at 12 hrs by Western blot analysis; format: functional, cell-based
MDA-MB-468 [3] = assay: Induction of ferroptosis in human MDA-MB-468 cells assessed as increase in lipid peroxidation at 25 nM by C11-BODIPY staining based flow cytometry analysis; format: functional, cell-based; conditions: time <= 24.0 hrs
[4] = biological target: T1, Thioredoxin reductase 1, cytoplasmic (Homo sapiens) (UniProt Q16881); assay: Inhibition of TRXR1 in human MDA-MB-468 cells incubated for 24 hrs by; format: cell-based
T1 sequence (whole entry): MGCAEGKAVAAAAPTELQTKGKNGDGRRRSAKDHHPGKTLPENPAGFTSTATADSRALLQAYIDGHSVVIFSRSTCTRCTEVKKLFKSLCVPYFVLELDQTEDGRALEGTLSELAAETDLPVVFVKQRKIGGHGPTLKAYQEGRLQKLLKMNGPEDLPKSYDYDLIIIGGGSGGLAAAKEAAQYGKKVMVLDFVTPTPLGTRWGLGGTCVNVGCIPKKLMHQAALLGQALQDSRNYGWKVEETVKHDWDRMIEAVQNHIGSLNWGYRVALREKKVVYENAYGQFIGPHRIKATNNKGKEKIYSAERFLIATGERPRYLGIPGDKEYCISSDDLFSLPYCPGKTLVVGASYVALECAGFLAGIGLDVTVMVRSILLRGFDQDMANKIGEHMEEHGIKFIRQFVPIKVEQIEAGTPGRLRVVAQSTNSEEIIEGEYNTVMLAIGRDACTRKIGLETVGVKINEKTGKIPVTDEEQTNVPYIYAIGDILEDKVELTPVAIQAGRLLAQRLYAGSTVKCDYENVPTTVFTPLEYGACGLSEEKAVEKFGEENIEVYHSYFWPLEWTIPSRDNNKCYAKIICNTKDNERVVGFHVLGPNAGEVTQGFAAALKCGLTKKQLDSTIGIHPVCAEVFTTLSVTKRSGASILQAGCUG

MDA-MB-468 [5] = assay: Induction of apoptosis in human MDA-MB-468 cells assessed as increase in caspase 3/7 activation at 25 nM measured at 12 hrs in presence of 4-PBA by Western blot analysis; format: functional, cell-based
MDA-MB-468 [6] = assay: Induction of endoplasmic reticulum (ER) stress-mediated apoptosis in human MDA-MB-468 cells assessed as increase in CHOP expression at 25 nM measured at 4 to 48 hrs by Western blot analysis; format: functional, cell-based; conditions: time 4-48 hrs
MDA-MB-468 [7] = assay: Induction of ferroptosis in human MDA-MB-468 cells assessed as decrease in 4-HNE level at 25 nM in presence of ferrostatin-1; format: functional, cell-based
MDA-MB-468 [8] = assay: Induction of endoplasmic reticulum (ER) stress-mediated apoptosis in human MDA-MB-468 cells assessed as reduction in ATF4 expression at 25 nM measured for 12 hrs in presence of 4-PBA by Western blot analysis; format: functional, cell-based
MDA-MB-468 [9] = assay: Induction of ferroptosis in human MDA-MB-468 cells assessed as reduction in intracellular GSH level at 25 nM incubated for 12 hrs; format: functional, cell-based
MDA-MB-468 [10] = assay: Induction of ferroptosis in human MDA-MB-468 cells assessed as increase in MDA level at 25 nM; format: functional, cell-based
MDA-MB-468 [11] = assay: Induction of endoplasmic reticulum (ER) stress-mediated apoptosis in human MDA-MB-468 cells assessed as increase in ATF4 expression at 25 nM measured at 4 to 48 hrs by Western blot analysis; format: functional, cell-based; conditions: time 4-48 hrs
MDA-MB-468 [12] = assay: Induction of endoplasmic reticulum (ER) stress-mediated apoptosis in human MDA-MB-468 cells assessed as increase in ATF4 expression at 25 nM measured at 2 hrs by Western blot analysis; format: functional, cell-based
[13] = Toxicity in female BALB/c mouse implanted with mouse 4T1 cells assessed as liver abnormality at 10 mg/kg, iv; format: organism-based; conditions: in vivo
[14] = Toxicity in female BALB/c mouse implanted with mouse 4T1 cells assessed as kidney lesion at 10 mg/kg, iv; format: organism-based; conditions: in vivo
[15] = Toxicity in female BALB/c mouse implanted with mouse 4T1 cells assessed as liver inflammation at 10 mg/kg, iv; format: organism-based; conditions: in vivo
[16] = Toxicity in female BALB/c mouse implanted with mouse 4T1 cells assessed as kidney abnormality at 10 mg/kg, iv; format: organism-based; conditions: in vivo
[17] = Toxicity in female BALB/c mouse implanted with mouse 4T1 cells assessed as kidney damage at 10 mg/kg, iv; format: organism-based; conditions: in vivo
A549 = assay: Antiproliferative activity against human A549 cells assessed as cell viability at 10 nM incubated for 48 hrs by MTT assay; format: functional, cell-based
[18] = Toxicity in female BALB/c mouse implanted with mouse 4T1 cells assessed as spleen damage at 10 mg/kg, iv; format: organism-based; conditions: in vivo
4T1 [19] = assay: Antitumor activity against mouse 4T1 cells implanted in female BALB/c mouse model assessed as increase in cleaved caspase-3 level in tumor at 10 mg/kg, iv administered upto 5 days; format: functional, organism-based; conditions: time <= 5.0 day
[20] = Toxicity in female BALB/c mouse implanted with mouse 4T1 cells assessed as heart inflammation at 10 mg/kg, iv; format: organism-based; conditions: in vivo
4T1 [21] = assay: Antitumor activity against mouse 4T1 cells implanted in female BALB/c mouse assessed as increase in MDA level in tumor at 10 mg/kg, iv administered upto 5 days by Western blot analysis; format: functional, organism-based; conditions: time <= 5.0 day
[22] = Toxicity in female BALB/c mouse implanted with mouse 4T1 cells assessed as liver lesion at 10 mg/kg, iv; format: organism-based; conditions: in vivo
MDA-MB-468 [23] = assay: Induction of ROS production in human MDA-MB-468 cells assessed as increase in fluorescent signal at 25 nM incubated for 6 hrs by DCFH-DA staining based flow cytometry analysis; format: functional, cell-based
MDA-MB-468 [24] = assay: Inhibition of cell migration in human MDA-MB-468 cells assessed as decrease in cell migration at 25 nM incubated for 48 hrs by wound healing assay; format: functional, cell-based
[25] = Toxicity in female BALB/c mouse implanted with mouse 4T1 cells assessed as heart damage at 10 mg/kg, iv; format: organism-based; conditions: in vivo
[26] = Toxicity in female BALB/c mouse implanted with mouse 4T1 cells assessed as heart abnormality at 10 mg/kg, iv; format: organism-based; conditions: in vivo
4T1 [27] = assay: Antitumor activity against mouse 4T1 cells implanted in female BALB/c mouse model assessed as increase in TNF-alpha expression in tumor at 10 mg/kg, iv administered upto 5 days; format: functional, organism-based; conditions: time <= 5.0 day
4T1 [28] = assay: Antitumor activity against mouse 4T1 cells implanted in female BALB/c mouse at 10 mg/kg, iv administered upto 5 days; format: functional, organism-based; conditions: time <= 5.0 day
4T1 [29] = assay: Antitumor immunity against mouse 4T1 cells implanted in female BALB/c mouse model assessed as increase in ratio of CD8+ T cells to CD4+ T cells at 10 mg/kg, iv administered upto 5 days by flow cytometry analysis; format: functional, organism-based; conditions: time <= 5.0 day
[30] = Toxicity in female BALB/c mouse implanted with mouse 4T1 cells assessed as lung abnormality at 10 mg/kg, iv; format: organism-based; conditions: in vivo

inhibition [4] | Compound | Activity (MDA-MB-468 [1]) | Activity (MDA-MB-468 [2]) | Activity (MDA-MB-468 [3]) | Activity (MDA-MB-468 [5]) | Activity (MDA-MB-468 [6]) | Activity (MDA-MB-468 [7]) | Activity (MDA-MB-468 [8]) | Activity (MDA-MB-468 [9]) | Activity (MDA-MB-468 [10]) | Activity (MDA-MB-468 [11]) | further results
Active | CCCCCCC[C@@H]1CC(=O)N[C@H](Cc2ccccc2)C(=O)N[C@@H](CSC)C(=O)N[C@@H](CSC)C(=O)O1 | Active | Active | Time-dependent-effect | Active | Active | Active | inactive | inactive | inactive | Active | 
Active | CCCCCCC[C@@H]1CC(=O)N[C@H](Cc2ccccc2)C(=O)N[C@H]2CSSC[C@H](NC2=O)C(=O)O1 |  | Active |  | Active |  | Active | Active | inactive | inactive |  | Activity (MDA-MB-468 [12]): Active; Activity [13]: Non-toxic; Activity [14]: Non-toxic; Activity [15]: Non-toxic; Activity [16]: Non-toxic; Activity [17]: Non-toxic; Activity (A549): Active; Activity [18]: Non-toxic; Activity (4T1 [19]): Active; Activity [20]: Non-toxic; Activity (4T1 [21]): Active; Activity [22]: Non-toxic; Activity (MDA-MB-468 [23]): Active; inhibition (MDA-MB-468 [24]): Active; Activity [25]: Non-toxic; Activity [26]: Non-toxic; Activity (4T1 [27]): Active; Activity (4T1 [28]): Active; Activity (4T1 [29]): Active; Activity [30]: Non-toxic
Active | CCCCCCC[C@@H](O)CC(=O)N[C@H](Cc1ccccc1)C(=O)N[C@H]1CSSC[C@@H](C(=O)O)NC1=O | Active | Active | Time-dependent-effect | Active | Active | Active | inactive | inactive | inactive | Active | 
